The record followed here is ChEMBL document CHEMBL1201862, “PubChem BioAssay data set” (2004).

Activity calls are given as the source filed them. Where only a bound is given, the exact number is not on record here.

The term IC50 denotes the point on the concentration scale where inhibition reaches its midpoint. As a reminder, the Ki is a dissociation constant, usually derived from enzyme kinetics or from competition with a known ligand.

Format in all cases: functional
Assay [1] has as its target T1, Sentrin-specific protease 6 (Homo sapiens, UniProt Q9GZR1).
T1 sequence (Q9GZR1 whole entry): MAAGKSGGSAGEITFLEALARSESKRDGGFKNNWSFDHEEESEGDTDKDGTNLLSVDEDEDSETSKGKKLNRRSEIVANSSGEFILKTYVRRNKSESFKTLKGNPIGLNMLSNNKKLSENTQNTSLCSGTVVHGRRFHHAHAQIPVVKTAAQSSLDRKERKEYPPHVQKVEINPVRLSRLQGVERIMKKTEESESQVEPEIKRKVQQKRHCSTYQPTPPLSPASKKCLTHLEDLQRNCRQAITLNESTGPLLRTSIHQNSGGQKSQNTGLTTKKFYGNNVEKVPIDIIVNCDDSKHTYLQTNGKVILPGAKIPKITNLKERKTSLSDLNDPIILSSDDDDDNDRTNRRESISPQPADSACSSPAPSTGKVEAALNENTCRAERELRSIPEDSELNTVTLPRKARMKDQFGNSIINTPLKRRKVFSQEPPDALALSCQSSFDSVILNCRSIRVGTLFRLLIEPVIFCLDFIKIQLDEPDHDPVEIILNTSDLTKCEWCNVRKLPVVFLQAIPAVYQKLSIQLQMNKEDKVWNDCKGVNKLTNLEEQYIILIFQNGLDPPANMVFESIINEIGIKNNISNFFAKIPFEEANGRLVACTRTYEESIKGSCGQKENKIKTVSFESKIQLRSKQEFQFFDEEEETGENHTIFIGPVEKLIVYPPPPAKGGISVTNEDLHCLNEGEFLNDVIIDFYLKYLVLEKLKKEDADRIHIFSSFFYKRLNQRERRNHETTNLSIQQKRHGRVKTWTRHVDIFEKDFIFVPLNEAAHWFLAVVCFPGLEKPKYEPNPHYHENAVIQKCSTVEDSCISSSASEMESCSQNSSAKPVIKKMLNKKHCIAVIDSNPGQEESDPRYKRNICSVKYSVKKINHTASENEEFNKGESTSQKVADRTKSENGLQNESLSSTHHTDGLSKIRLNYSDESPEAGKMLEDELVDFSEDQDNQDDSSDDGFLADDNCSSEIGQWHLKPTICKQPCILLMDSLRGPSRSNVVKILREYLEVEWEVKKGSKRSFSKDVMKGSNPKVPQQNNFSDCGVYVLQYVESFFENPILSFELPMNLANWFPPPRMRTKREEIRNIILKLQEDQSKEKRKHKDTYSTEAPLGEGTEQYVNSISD
As to the kind of experiment: SAR Analysis of small molecule inhibitors of Sentrin-specific protease 6 (SENP6) using a Luminescent assay. [Related pubchem assays (depositor defined):AID2582, AID2599].

Assay [2] has as its target T2, Tyrosine-protein kinase JAK3 (Homo sapiens, UniProt P52333).
T2 sequence (P52333 whole entry): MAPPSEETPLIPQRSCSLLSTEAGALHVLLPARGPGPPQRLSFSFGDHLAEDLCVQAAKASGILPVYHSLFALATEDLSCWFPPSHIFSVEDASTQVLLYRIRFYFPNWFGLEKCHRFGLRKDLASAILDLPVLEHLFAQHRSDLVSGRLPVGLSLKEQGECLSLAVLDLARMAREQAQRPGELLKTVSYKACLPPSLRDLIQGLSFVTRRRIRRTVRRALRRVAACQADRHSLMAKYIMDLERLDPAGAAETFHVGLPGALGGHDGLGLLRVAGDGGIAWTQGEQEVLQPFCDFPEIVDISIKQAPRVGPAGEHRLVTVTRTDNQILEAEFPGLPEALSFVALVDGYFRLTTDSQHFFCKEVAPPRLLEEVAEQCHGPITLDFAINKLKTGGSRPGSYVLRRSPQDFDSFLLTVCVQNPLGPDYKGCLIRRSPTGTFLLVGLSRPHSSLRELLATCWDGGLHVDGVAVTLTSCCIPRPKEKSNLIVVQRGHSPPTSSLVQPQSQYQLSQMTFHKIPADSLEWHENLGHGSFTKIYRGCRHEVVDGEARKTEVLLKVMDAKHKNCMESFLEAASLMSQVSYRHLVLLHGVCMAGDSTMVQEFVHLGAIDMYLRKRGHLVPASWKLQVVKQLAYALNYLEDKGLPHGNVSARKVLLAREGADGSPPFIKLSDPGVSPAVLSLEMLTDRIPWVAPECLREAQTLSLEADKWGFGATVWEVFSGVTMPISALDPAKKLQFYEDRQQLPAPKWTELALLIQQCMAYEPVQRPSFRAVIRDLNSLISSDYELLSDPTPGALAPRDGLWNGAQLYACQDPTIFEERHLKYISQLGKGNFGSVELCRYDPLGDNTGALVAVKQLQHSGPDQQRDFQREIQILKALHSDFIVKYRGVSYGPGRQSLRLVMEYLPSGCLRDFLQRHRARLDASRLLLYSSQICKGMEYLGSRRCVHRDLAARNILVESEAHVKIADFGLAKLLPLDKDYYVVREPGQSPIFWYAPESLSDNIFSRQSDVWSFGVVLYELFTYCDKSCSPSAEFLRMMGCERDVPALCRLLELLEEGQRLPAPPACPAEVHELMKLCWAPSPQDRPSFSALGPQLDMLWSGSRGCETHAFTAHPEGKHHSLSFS

For assay [3], the target named is Inhibitor of nuclear factor kappa-B kinase subunit epsilon (Homo sapiens, UniProt Q14164). As to the kind of experiment: Navigating the Kinome. Panel member name: IKBKE.
Assay [4] deals with Glycogen synthase kinase-3 alpha (Homo sapiens, UniProt P49840).
Assay [5] has as its target Serine/threonine-protein kinase D3 (Homo sapiens, UniProt O94806).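 Also: determined within a kinase panel screen, with PRKCN as the panel member.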
Assay [6] deals with LIM domain kinase 1 (Homo sapiens, UniProt P53667). As to the kind of experiment: Navigating the Kinome. Panel member name: LIMK1.
The target in assay [7] is Mitogen-activated protein kinase kinase kinase kinase 2 (Homo sapiens, UniProt Q12851).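 Also: measured as one member of a kinome-wide kinase panel, with MAP4K2 as the panel entry.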
Assay [8] deals with Fibroblast growth factor receptor 1 (Homo sapiens, UniProt P11362).
Sequence of Fibroblast growth factor receptor 1 (P11362 whole entry): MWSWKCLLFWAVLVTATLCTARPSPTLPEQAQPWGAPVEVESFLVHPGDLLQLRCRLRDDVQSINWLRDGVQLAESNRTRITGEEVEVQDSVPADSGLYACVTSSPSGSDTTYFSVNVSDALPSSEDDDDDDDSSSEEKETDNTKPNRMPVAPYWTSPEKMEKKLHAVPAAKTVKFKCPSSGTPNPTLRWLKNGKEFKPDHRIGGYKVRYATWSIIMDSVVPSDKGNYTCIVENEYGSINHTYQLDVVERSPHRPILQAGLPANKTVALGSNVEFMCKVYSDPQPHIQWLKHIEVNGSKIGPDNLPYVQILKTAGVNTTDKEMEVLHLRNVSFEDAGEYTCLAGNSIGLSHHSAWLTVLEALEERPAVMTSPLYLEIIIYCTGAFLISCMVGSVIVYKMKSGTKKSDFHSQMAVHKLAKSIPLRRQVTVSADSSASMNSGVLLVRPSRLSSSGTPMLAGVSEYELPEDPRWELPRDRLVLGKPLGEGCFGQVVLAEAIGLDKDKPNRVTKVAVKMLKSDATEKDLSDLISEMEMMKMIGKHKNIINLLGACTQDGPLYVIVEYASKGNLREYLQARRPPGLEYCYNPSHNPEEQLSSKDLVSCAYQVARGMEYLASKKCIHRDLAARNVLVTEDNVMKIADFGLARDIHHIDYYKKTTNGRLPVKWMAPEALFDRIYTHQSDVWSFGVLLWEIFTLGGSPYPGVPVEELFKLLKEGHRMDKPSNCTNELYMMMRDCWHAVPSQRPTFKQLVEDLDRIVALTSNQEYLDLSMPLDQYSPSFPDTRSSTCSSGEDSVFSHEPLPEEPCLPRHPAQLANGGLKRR

Sequence of Glycogen synthase kinase-3 alpha (P49840 whole entry): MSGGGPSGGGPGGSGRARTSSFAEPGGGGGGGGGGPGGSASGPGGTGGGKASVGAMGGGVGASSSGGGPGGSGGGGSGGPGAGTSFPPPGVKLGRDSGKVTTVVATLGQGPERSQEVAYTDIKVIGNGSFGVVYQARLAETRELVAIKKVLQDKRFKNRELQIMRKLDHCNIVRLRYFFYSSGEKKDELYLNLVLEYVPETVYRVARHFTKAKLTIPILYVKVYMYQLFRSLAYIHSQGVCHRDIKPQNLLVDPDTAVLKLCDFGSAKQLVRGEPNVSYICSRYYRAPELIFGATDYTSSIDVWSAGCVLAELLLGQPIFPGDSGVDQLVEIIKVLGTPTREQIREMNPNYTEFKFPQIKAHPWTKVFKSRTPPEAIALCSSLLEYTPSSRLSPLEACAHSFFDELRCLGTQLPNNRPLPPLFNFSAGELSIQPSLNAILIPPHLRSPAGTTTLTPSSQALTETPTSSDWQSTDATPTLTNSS
Sequence of LIM domain kinase 1 (P53667 whole entry, the tested form may be a part): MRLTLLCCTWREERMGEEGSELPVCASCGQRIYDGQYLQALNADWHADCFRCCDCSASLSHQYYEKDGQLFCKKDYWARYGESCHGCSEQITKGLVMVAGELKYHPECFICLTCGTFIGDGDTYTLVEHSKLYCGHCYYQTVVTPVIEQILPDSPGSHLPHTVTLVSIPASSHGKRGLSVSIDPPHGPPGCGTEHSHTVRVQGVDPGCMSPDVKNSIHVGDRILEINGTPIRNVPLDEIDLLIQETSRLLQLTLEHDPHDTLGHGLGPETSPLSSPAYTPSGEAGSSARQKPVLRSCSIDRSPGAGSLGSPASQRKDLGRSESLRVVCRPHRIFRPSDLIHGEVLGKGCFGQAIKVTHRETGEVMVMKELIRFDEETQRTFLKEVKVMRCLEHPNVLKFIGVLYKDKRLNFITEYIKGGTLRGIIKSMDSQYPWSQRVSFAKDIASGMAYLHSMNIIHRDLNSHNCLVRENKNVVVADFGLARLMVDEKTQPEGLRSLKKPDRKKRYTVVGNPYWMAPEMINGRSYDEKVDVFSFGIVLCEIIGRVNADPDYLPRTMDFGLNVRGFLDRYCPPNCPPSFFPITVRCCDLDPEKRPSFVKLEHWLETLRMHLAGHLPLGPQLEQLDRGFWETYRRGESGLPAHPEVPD
Sequence of Mitogen-activated protein kinase kinase kinase kinase 2 (Q12851 whole entry): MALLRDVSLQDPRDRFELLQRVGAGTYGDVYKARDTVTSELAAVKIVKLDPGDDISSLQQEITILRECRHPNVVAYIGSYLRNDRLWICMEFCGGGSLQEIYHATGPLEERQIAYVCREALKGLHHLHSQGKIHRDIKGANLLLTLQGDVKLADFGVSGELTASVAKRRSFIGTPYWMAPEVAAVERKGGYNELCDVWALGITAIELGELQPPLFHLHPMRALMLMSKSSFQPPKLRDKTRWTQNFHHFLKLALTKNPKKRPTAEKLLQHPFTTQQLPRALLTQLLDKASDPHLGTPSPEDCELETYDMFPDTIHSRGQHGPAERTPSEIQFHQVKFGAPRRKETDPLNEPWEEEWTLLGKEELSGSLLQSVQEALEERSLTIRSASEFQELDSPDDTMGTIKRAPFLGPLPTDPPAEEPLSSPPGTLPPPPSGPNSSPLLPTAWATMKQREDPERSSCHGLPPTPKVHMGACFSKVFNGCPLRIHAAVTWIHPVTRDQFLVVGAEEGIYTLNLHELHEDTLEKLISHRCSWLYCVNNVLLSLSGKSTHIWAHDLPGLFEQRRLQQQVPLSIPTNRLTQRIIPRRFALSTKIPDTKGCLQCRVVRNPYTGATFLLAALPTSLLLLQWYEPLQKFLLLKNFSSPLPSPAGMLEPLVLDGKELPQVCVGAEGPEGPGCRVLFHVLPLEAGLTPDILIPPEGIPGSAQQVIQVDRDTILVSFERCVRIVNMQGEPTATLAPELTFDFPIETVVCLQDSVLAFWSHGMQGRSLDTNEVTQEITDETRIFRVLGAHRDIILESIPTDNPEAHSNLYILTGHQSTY
Sequence of Inhibitor of nuclear factor kappa-B kinase subunit epsilon (Q14164 whole entry): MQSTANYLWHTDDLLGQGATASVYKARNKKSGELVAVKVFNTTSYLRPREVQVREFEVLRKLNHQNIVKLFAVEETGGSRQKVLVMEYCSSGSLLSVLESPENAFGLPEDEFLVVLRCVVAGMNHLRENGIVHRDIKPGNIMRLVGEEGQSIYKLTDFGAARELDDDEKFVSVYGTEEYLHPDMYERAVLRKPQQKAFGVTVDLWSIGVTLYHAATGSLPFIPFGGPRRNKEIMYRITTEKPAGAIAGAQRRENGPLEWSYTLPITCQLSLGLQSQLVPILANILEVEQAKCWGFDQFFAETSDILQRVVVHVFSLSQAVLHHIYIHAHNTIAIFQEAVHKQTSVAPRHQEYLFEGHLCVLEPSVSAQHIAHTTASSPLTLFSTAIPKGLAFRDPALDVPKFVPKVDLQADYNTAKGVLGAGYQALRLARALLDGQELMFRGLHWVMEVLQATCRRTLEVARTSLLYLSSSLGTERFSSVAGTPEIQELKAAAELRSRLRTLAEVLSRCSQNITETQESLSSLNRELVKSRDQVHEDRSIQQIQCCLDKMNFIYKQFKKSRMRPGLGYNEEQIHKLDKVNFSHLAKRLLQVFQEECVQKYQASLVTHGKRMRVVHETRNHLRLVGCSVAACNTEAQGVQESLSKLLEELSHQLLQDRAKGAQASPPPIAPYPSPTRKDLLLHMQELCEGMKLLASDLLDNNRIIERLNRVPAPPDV
Sequence of Serine/threonine-protein kinase D3 (O94806 whole entry, the tested form may be a part): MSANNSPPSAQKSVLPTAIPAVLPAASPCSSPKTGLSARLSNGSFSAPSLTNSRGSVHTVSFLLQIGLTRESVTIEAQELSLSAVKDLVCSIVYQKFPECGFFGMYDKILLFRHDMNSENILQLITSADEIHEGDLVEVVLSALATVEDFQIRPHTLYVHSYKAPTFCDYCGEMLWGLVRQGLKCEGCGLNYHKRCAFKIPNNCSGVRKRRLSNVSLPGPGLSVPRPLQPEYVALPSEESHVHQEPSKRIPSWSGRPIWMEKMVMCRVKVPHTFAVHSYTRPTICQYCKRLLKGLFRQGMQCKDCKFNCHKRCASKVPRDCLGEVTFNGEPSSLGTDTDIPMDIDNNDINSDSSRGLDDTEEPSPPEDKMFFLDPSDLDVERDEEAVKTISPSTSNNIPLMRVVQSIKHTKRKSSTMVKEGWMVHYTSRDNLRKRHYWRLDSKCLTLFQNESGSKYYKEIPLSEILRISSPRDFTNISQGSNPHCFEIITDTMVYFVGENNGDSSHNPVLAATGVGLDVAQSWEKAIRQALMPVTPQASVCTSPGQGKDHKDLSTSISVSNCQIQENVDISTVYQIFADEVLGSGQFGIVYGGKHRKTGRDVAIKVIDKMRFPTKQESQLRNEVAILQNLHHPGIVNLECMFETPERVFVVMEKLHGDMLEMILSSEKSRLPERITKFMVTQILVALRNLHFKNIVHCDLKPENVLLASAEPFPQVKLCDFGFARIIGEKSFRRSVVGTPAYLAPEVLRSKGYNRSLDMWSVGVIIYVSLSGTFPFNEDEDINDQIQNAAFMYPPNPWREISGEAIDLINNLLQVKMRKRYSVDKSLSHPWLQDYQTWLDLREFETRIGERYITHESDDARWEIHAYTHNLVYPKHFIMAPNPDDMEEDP

`Cc1ccc(NC(=O)COc2cccc(/C=C3\SC(=S)N(CCC(=O)O)C3=O)c2)cc1Cl`: in assay [1], the IC50 was 5.06 µM (active).
Take `COc1cccc(C(C)NC(=O)c2ccc(-c3ccncc3)s2)c1` (stereo not drawn): the Ki in assay [2] was > 5.01 µM (inactive); in assay [3], > 3.16 µM (inactive); in assay [4] it was 1 µM (active); in assay [5], > 3.98 µM (inactive); in assay [6] it was > 3.16 µM (inactive); in assay [7] it was > 2.51 µM (inactive). In addition, the Ki in assay [8] was > 3.98 µM (inactive).
